Like-named read-outs stand apart in the source and are kept apart here.
Key:
[1] = target: T1, glucosylceramide synthase (Homo sapiens, UniProt Q16739); assay: microsomal assay measuring conversion of ceramide to glucosylceramide by HPLC (GCS IC50); type: biochemical; settings: concentration causing 50% inhibition of glucosylceramide synthase activity
T1 construct: Microsomes were isolated from A375 human melanoma cells; endogenous in cells; host or cells: A375 human melanoma cells (microsomal fraction, 100,000 g pellet)
T1 sequence (Q16739 1-394): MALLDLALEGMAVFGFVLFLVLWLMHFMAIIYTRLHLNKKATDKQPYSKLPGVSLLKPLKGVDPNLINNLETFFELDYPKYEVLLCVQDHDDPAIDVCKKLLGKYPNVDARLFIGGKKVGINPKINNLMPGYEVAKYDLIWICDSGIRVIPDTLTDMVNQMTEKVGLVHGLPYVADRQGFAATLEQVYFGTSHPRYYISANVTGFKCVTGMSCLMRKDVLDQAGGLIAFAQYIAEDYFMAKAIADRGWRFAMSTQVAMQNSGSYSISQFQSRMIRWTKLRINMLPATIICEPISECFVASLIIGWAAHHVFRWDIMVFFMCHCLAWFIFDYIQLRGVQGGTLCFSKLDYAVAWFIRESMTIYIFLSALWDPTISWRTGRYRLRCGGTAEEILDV
Outline: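 IC50 is the compound concentration halving glucosylceramide synthase activity. Activity was measured in microsomes, with HPLC quantifying glucosylceramide formed from ceramide.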

[2] = tested on: GM3 expression on the cell surface, B16 mouse melanoma cells; assay: cell based phenotypic assay, cell surface GM3 by antibody mediated immunofluorescence, B16 (GM3 B16 IC50); settings: 50% inhibition of GM3 expression on the cell surface
Outline: (§1)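 Two melanoma lines, mouse B16 and human C32, were treated and surface GM3 quantified by antibody immunofluorescence for IC50. A parallel viability readout gives the concentration killing 50% of cells, with values over 10 indicating no cell death.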

[3] = tested on: GM3 expression on the cell surface, C32 human melanoma cells; assay: cell based phenotypic assay, cell surface GM3 by antibody mediated immunofluorescence, C32 (GM3 C32 IC50); settings: 50% inhibition of GM3 expression on the cell surface
Outline: as §1

[4] = tested on: B16 mouse melanoma cells; assay: cell viability in the B16 cell-based assay (Viability, B16 IC50)
Outline: (§2)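 Cell death was scored within the cell-based GM3 experiment for each line. The viability value is the concentration producing 50% death, and numbers exceeding 10 signify no cytotoxicity.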

[5] = tested on: C32 human melanoma cells; assay: cell viability in the C32 cell-based assay (Viability, C32 IC50); settings: concentration causing 50% cell death, values greater than 10 represent a lack of cell death
Outline: as §2

[6] = Mus musculus, B16 mouse melanoma cells, read-out: GM3 B16 IC50
[7] = Homo sapiens, C32 human melanoma cells, read-out: GM3 C32 IC50
[8] = Mus musculus, B16, B16 cells, concentration causing 50% cell death, values greater than 10 represent a lack of cell death, read-out: Viability, B16 IC50
[9] = Homo sapiens, C32, C32 cells, read-out: Viability, C32 IC50
[10] = Mus musculus, read-out: GM3 B16 IC50, B16 mouse melanoma cells
[11] = Homo sapiens, read-out: GM3 C32 IC50, C32 human melanoma cells
[12] = Mus musculus, B16, read-out: Viability, B16 IC50
[13] = Homo sapiens, C32, read-out: Viability, C32 IC50, C32 cells
[14] = B16 mouse melanoma cells, read-out: GM3 B16 IC50
[15] = C32 human melanoma cells, read-out: GM3 C32 IC50
[16] = B16 cells, concentration causing 50% cell death, values greater than 10 represent a lack of cell death, read-out: Viability, B16 IC50
[17] = C32 cells, read-out: Viability, C32 IC50

| Compound | IC50 [1] [nM] | IC50 [2, 6] [nM] | IC50 [3, 7] [nM] | IC50 [4, 8] [nM] | IC50 [5, 9] [nM] | IC50 [2, 10] [nM] | IC50 [3, 11] [nM] | IC50 [4, 12] [nM] | IC50 [5, 13] [nM] | IC50 [2, 14] [nM] | IC50 [3, 15] [nM] | IC50 [4, 16] [nM] | IC50 [5, 17] [nM] |
| --- | --- | --- | --- | --- | --- | --- | --- | --- | --- | --- | --- | --- | --- |
| CCC1(NC(=O)NC(C)(C)c2ccc(-c3ccc(S(C)(=O)=O)cc3)cc2)CN2CCC1CC2 (stereo not shown) [Example 236, 1-(3-Ethylquinuclidin-3-yl)-3-(2-(4′-(methylsulfonyl)-[1,1′-biphenyl]-4-yl)propan-2-yl)urea] | 53.8 | 74.4 | 9.46 | ≥ 10000 | ≥ 10000 | – | – | – | – | – | – | – | – |
| COCCCOc1ccc(-c2cccc(C(C)(C)NC(=O)OC3CN4CCC3CC4)c2)nn1 (stereo not shown) [Example 312, Quinuclidin-3-yl (2-(3-(6-(3-methoxypropoxy)pyridazin-3-yl)phenyl)propan-2-yl)carbamate] | 1660 | – | – | – | – | 1340 | 103 | ≥ 10000 | 1000 | – | – | – | – |
| N-(2-(4-(4-(Methylcarbamoyl)phenoxy)phenyl)propan-2-yl)-1,4-diazabicyclo[3.2.2]nonane-4-carboxamide [Example 305] | 399 | – | – | – | – | – | – | – | – | 299 | 19.5 | ≥ 10000 | 1000 |
| COCCOc1ccc(Oc2nc(N3CCC(F)(C(=O)NC4(C)CN5CCC4CC5)CC3)ncc2F)cc1 (stereo not shown) [Example 118, 4-Fluoro-1-(5-fluoro-4-(4-(2-methoxyethoxy)phenoxy)pyrimidin-2-yl)-N-(3-methylquinuclidin-3-yl)piperidine-4-carboxamide] | 2.54 | 63.4 | 1.16 | 4640 | 1000 | – | – | – | – | – | – | – | – |
| CC(C)(NC(=O)OC1CN2CCC1CC2)c1ccc(-c2ccc(OCCC3COC3)cc2)cc1 (stereo not shown) [Example 194, Quinuclidin-3-yl (2-(4′-(2-(oxetan-3-yl)ethoxy)-[1,1′-biphenyl]-4-yl)propan-2-yl)carbamate] | 10.5 | – | – | – | – | 115 | 4.06 | 9930 | 1000 | – | – | – | – |
| CC1(NC(=O)C2CCN(c3cncc(-c4ccc(F)cc4)n3)CC2)CCN2CCC1CC2 (single isomer, unassigned) [Example 47, 1-(6-(4-Fluorophenyl)pyrazin-2-yl)-N-(4-methyl-1-azabicyclo[3.2.2]nonan-4-yl)piperidine-4-carboxamide] | 258 | – | – | 7830 | – | – | – | – | – | 2190 | 50 | – | 3160 |
| CCC1CN(C(=O)NC2(C)CCN3CCC2CC3)CCN1c1nccc(-c2ccccc2)n1 (stereo not shown) [Example 142, 3-Ethyl-N-(4-methyl-1-azabicyclo[3.2.2]nonan-4-yl)-4-(4-phenylpyrimidin-2-yl)piperazine-1-carboxamide] | 7.69 | 100 | 0.861 | 5340 | 9210 | – | – | – | – | – | – | – | – |
| COCCCS(=O)(=O)c1ccc(-c2ccc(C(C)(C)NC(=O)OC3CN4CCC3CC4)cc2)cc1 (stereo not shown) [Example 242, Quinuclidin-3-yl (2-(4′-((3-methoxypropyl)sulfonyl)-[1,1′-biphenyl]-4-yl)propan-2-yl)carbamate] | 32.5 | – | – | – | – | 82.5 | 10.2 | ≥ 10000 | 3160 | – | – | – | – |
| COCc1ccc(-c2ccnc(N3CCN(C(=O)NC4(C)CCN5CCC4CC5)CC3C(F)(F)F)n2)cc1 (stereo not shown) [Example 149, 4-(4-(4-(Methoxymethyl)phenyl)pyrimidin-2-yl)-N-(4-methyl-1-azabicyclo[3.2.2]nonan-4-yl)-3-(trifluoromethyl)piperazine-1-carboxamide] | 10.9 | 279 | 1.5 | 4310 | 1000 | – | – | – | – | – | – | – | – |
| CC1(NC(=O)C2(F)CCN(c3nccc(-c4ccc(F)cc4)n3)CC2)CCN2CCC1CC2 (stereo not shown) [Example 94, 4-Fluoro-1-(4-(4-fluorophenyl)pyrimidin-2-yl)-N-(4-methyl-1-azabicyclo[3.2.2]nonan-4-yl)piperidine-4-carboxamide] | 0.736 | 14.4 | 0.0964 | 2100 | 46.4 | – | – | – | – | – | – | – | – |
| CC1(NC(=O)C2(F)CCN(c3nccc(OCc4ccc(F)cc4)n3)CC2)CN2CCC1CC2 (stereo not shown) [Example 125, 4-Fluoro-1-(4-((4-fluorobenzyl)oxy)pyrimidin-2-yl)-N-(3-methylquinuclidin-3-yl)piperidine-4-carboxamide] | 0.643 | 17.7 | 0.0509 | 4290 | 158 | – | – | – | – | – | – | – | – |
| COCCOc1ccc(-c2ccc(C(C)(C)NC(=O)N[C@@]3(C)CN4CCC3CC4)cc2)cc1 [Example 157, (R)-1-(2-(4′-(2-Methoxyethoxy)-[1,1′-biphenyl]-4-yl)propan-2-yl)-3-(3-methylquinuclidin-3-yl)urea] | 228 | 538 | 42 | 3160 | 3160 | – | – | – | – | – | – | – | – |
| COCCOCc1ccc(-c2ccnc(N3CCC(F)(C(=O)N[C@]4(C)CN5CCC4CC5)CC3)n2)cc1 [Example 84, (S)-4-Fluoro-1-(4-(4-((2-methoxyethoxy)methyl)phenyl)pyrimidin-2-yl)-N-(3-methylquinuclidin-3-yl)piperidine-4-carboxamide] | 5.35 | 90.3 | 0.621 | ≥ 10000 | 1000 | – | – | – | – | – | – | – | – |
| CC(C)(NC(=O)NC1(C)CCN2CCC1CC2)c1ccc(-c2ccc(OCCn3ccnn3)cc2)cc1 (stereo not shown) [Example 185, 1-(2-(4′-(2-(1H-1,2,3-Triazol-1-yl)ethoxy)-[1,1′-biphenyl]-4-yl)propan-2-yl)-3-(4-methyl-1-azabicyclo[3.2.2]nonan-4-yl)urea] | 12.9 | 99.9 | 3.87 | 3160 | 1000 | – | – | – | – | – | – | – | – |
| CC1(NC(=O)N2CCN(c3ccc(-c4ccccc4)cc3)CC2)CCN2CCC1CC2 (stereo not shown) [Example 4, 4-([1,1′-Biphenyl]-4-yl)-N-(4-methyl-1-azabicyclo[3.2.2]nonan-4-yl)piperazine-1-carboxamide] | 1000 | 1380 | 62.5 | 6160 | 6310 | – | – | – | – | – | – | – | – |
| 4-(4′-Fluoro-[1,1′-biphenyl]-3-yl)-N-(4-methyl-1-azabicyclo[3.2.2]nonan-4-yl)piperazine-1-carboxamide [Example 22] | 613 | – | – | – | – | – | – | – | – | 629 | 41.1 | 7060 | 1000 |
| COCCOc1cccc(-c2ccc(C(C)(C)NC(=O)N3CCN4CCC3CC4)cc2)c1 [Example 169, N-(2-(3′-(2-Methoxyethoxy)-[1,1′-biphenyl]-4-yl)propan-2-yl)-1,4-diazabicyclo[3.2.2]nonane-4-carboxamide] | 257 | 283 | 18 | ≥ 10000 | 1000 | – | – | – | – | – | – | – | – |
| CC1(NC(=O)C2CCN(c3cccc(-c4ccccc4)c3)CC2)CN2CCC1CC2 (stereo not shown) [Example 35, 1-([1,1′-Biphenyl]-3-yl)-N-(3-methylquinuclidin-3-yl)piperidine-4-carboxamide] | 49.6 | 149 | 7.11 | 7310 | 1000 | – | – | – | – | – | – | – | – |
| COCCOc1ccc(-c2cccc(C(C)(C)NC(=O)OC3CN4CCC3CC4)c2)cc1 (stereo not shown) [Example 170, Quinuclidin-3-yl (2-(4′-(2-methoxyethoxy)-[1,1′-biphenyl]-3-yl)propan-2-yl)carbamate] | 26.7 | – | – | – | – | 29.5 | 4.94 | ≥ 10000 | ≥ 10000 | – | – | – | – |
| CC1(NC(=O)C2(F)CCN(c3nccc(Oc4ccc(C#N)cc4)n3)CC2)CN2CCC1CC2 (stereo not shown) [Example 119, 1-(4-(4-Cyanophenoxy)pyrimidin-2-yl)-4-fluoro-N-(3-methylquinuclidin-3-yl)piperidine-4-carboxamide] | 6.71 | 54.4 | 0.476 | ≥ 10000 | 316 | – | – | – | – | – | – | – | – |

Source: patent US12060349B2, “Glucosylceramide synthase inhibitors” (Genzyme Corporation, priority 2012, dated 2024)
